O=C(O)c1cccc(Cl)c1C(=O)c1ccccc1
solubility (mole fraction)
Conditions	273.15 K	278.15 K	283.15 K	288.15 K	293.15 K	298.15 K	303.15 K	308.15 K	313.15 K	318.15 K
in 1,4-dioxane	0.0192	0.021	0.0231	0.0254	0.0281	0.0309	0.034	0.0373	0.0413	0.0462
in acetone	0.00169	0.00183	0.00204	0.00225	0.00258	0.00281	0.00308	0.00349	0.00385	0.00432
in ethyl acetate	0.00545	0.00599	0.00692	0.00811	0.00959	0.011	0.0128	0.0146	0.0172	0.0197

O=C1c2ccccc2C(=O)c2c(Cl)cccc21
solubility (mole fraction)
Conditions	273.15 K	278.15 K	283.15 K	288.15 K	293.15 K	298.15 K	303.15 K	308.15 K	313.15 K
in 1,4-dioxane	0.00323	0.00373	0.00412	0.00469	0.00547	0.00607	0.00691	0.00775	0.00896
in acetone	0.00272	0.00308	0.00336	0.00388	0.00448	0.00531	0.00611	0.00692	0.00767
in ethyl acetate	0.00335	0.00387	0.00459	0.00531	0.00605	0.0069	0.00795	0.00913	0.0106
in toluene	0.00918	0.01	0.0112	0.0122	0.0132	0.0146	0.016	0.0175	0.019

— BigSolDB 2.1
